The text below walks through data of PubChem BioAssay AID1421 (Emory University Molecular Libraries Screening Center, 2008).

This test concerns the target Prostaglandin E2 receptor EP2 subtype (Homo sapiens) (UniProt P43116). The experiment in a line: EP2 receptor modulators, dose response, cell-based, human EP2, PGE2 EC50 shift (AID 1421). The settings on record: EP2-expressing cells, PGE2 EC50 shift by compound; for PGE2 EC50 with compound: measured here: PGE2 EC50 at 6.7 uM compound.

Activity calls are given as the source filed them. No rule for the calls is given here.

Prostaglandin E2 receptor EP2 subtype (Homo sapiens), sequence (P43116 whole entry, looked up): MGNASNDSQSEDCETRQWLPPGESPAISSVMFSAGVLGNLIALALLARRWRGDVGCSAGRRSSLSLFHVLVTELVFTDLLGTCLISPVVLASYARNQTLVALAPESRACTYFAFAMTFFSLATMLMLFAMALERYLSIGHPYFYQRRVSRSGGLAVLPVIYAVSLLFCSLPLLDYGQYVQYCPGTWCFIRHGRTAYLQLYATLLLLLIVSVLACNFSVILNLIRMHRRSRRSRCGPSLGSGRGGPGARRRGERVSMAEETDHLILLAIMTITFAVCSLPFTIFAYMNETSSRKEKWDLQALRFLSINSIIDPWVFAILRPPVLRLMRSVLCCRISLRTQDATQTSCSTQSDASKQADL

As to `COc1ccc(C2=Nn3c(nnc3C3CCCCC3)SC2)cc1OC`, the PGE2 EC50 with compound is 1.58 nM. On the same count and under the same terms, the figure for `Cc1cc(Oc2ccccc2)nc(NCc2ccccc2)n1` is 0.63 nM; for `O=c1[nH]c2ccc(Br)cc2c(-c2ccccc2)c1N1CCOCC1` it is 1.07 nM. Turning to `CC(=O)c1ccc(S(=O)(=O)NCCCC(=O)NCCc2ccccn2)cc1`, the PGE2 EC50 with compound worked out at 1.15 nM. Still for that read-out and setting: then `CCOC(=O)c1c(NC(=O)CSc2nnc(C)s2)sc2c1CCC(C)C2` (stereo not drawn), with 0.95 nM. The same measure, in the same setting: then `CN(c1ccccc1)c1nc(N2CCCC2)nc(-n2ccnc2)n1`, with 0.79 nM. On the same count and under the same terms, then `O=C(O)c1cc2c(s1)-c1ccccc1OC2`, with 0.91 nM; and `[N-]=[N+]=Nc1ccc(C(=O)CSC[C@H](NC(=O)CC[C@H](N)C(=O)O)C(=O)NCC(=O)O)cc1`, with 0.8 nM. As for `O=C(N=C1SCC(=O)N1c1ccccc1Cl)c1ccccc1`, the PGE2 EC50 with compound is 1.03 nM. For `Cc1ccccc1CN(C)CC(=O)Nc1ccccc1Oc1ccccc1`, the outcome was active and the PGE2 EC50 with compound is 1.12 nM. Consider `O=C(Nc1ccccc1N1CCCC1)c1cc2ccccc2o1`, for which the PGE2 EC50 with compound came out at 1.46 nM. In the case of `Cc1cc(C)cc(C(=N)c2ccccc2Cc2cccc3ccccc23)c1`, the result was active and the PGE2 EC50 with compound came out at 1.22 nM. As for `Cn1c(=O)c2c(nc(CN3CCN(c4ccccc4)CC3)n2Cc2ccccc2Cl)n(C)c1=O`, the PGE2 EC50 with compound came to 2.59 nM. Still for that read-out and setting: the figure for `Cc1cc(C)n(CCOc2ccc(Cl)cc2Cl)n1` is 0.63 nM. For `O=C(O)c1nc2nc(Cl)c(Cl)nc2[nH]1`, the PGE2 EC50 with compound came out at 1.28 nM.

As for `O=C(c1ccc(Cl)cc1)c1oc2ccccc2c1CS(=O)c1ccccc1` (stereo not drawn), the PGE2 EC50 with compound is 0.87 nM. Consider `Cc1ccc(C)c(NC(=S)N(Cc2ccco2)C(C)c2cccs2)c1` (stereo not drawn), for which the outcome was active and the PGE2 EC50 with compound stood at 0.7 nM. In the case of `CC(NC(c1ccccc1)c1ccccc1)C(=O)N1CCCc2ccccc21` (stereo not drawn), the PGE2 EC50 with compound was determined as 1.25 nM. Same read-out and setting: the figure for `Cc1cc(Nc2ccc(Br)cc2)n2nc(C)nc2n1` is 1.06 nM; for `Cc1noc2ncnc(Sc3c(Cl)cccc3Cl)c12` it is 0.75 nM; for `N#CC1=C(S)N(c2ccccc2)C2(CCCCC2)NC1=O` it is 1.12 nM. The same measure, in the same setting: then `Cc1ccc(-n2c(SCC(N)=O)nc3c(c2=O)C2(CCCC2)Cc2ccccc2-3)cc1`, with 2.78 nM. Same read-out and setting: then `COc1cccc2[nH]c3c(N4CC(C)CC(C)C4)ncnc3c12` (stereo not drawn), with 1.15 nM; and `COc1cc(OC)c(OC)cc1CNCCc1ccc(OC)c(OC)c1`, with 1.3 nM; and `CCCCc1ccc(-n2c(Cc3cccs3)n[nH]c2=S)cc1`, with 0.8 nM.
